{"source": "patent US7288528B2", "about": "“Aromatic fluoroglycoside derivatives, medicaments containing these compounds, and the use thereof” (Sanofi-Aventis Deutschland GmbH, priority 2002, dated 2007)", "target": "T1, SGLT (Oryctolagus cuniculus, UniProt P11170)", "T1 construct": "To prepare brush border membranes from rabbit small intestine, rabbits were sacrificed; from tissue; host or cells: rabbit small intestine mucosa, brush border membrane vesicles (Mg2+ precipitation method)", "T1 sequence (P11170 1-662)": "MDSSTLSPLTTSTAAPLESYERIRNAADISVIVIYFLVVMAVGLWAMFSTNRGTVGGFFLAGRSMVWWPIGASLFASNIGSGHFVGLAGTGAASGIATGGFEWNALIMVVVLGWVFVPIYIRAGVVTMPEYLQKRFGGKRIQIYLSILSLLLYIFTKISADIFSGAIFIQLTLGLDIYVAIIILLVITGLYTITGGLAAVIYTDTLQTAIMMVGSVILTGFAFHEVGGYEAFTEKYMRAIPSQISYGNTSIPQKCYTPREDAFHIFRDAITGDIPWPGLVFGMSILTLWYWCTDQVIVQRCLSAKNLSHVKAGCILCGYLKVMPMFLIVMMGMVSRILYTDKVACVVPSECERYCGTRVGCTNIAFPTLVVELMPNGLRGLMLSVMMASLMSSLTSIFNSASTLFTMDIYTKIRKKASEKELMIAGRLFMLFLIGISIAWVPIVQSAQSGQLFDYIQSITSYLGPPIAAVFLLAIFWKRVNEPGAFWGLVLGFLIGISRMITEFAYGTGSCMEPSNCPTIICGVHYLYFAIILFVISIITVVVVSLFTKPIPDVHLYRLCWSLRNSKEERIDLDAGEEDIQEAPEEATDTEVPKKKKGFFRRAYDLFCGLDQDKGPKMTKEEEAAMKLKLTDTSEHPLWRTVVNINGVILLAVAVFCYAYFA", "test": "Glucose uptake by brush border membrane vesicles (transport assay, membrane filtration method)", "type": "biochemical", "settings": "uptake of 10 μM [14C]D-glucose into rabbit small intestine brush border membrane vesicles, 30° C., 15 seconds", "data": [{"compound": "COc1ccc(CCC(=O)c2c(O)cc(C)cc2OC2OC(CO)C(F)C(O)C2O)cc1", "note": "(centres unmarked) [Example 7]", "values": [{"measurement": "IC50", "value": 900, "unit": "nM"}]}, {"compound": "Cc1cc(O)c(C(=O)CCc2ccc3occc3c2)c(OC2OC(CO)C(F)C(O)C2O)c1", "note": "(single isomer, unassigned) [Example 4]", "values": [{"measurement": "IC50", "value": 1500, "unit": "nM"}]}, {"compound": "OCC1OC(Oc2ccccc2Cc2ccccc2)C(O)C(O)C1F", "note": "(centres unmarked) [Example 2]", "values": [{"measurement": "IC50", "value": 700, "unit": "nM"}]}, {"compound": "COc1ccc(Cc2ccccc2OC2OC(CO)C(F)C(O)C2O)cc1", "note": "(centres unmarked) [Example 1]", "values": [{"measurement": "IC50", "value": 500, "unit": "nM"}]}, {"compound": "Cc1cc(O)c(C(=O)CCc2ccc3occc3c2)c(OC2OC(CO)C(F)C(O)C2O)c1", "note": "(single isomer, unassigned) [Example 5]", "values": [{"measurement": "IC50", "value": 400, "unit": "nM"}]}]}
